Data from patent publication US20040023907A1, “Infection model” (priority 2000, published 2004).
Entries after “also recorded” stand apart in the source; their conditions may differ.

Legend:
[1] = test system: candida albicans (virulent strain Sc5314, avirulent strain Can34); experiment: Influence of antimycotics on adhesion of candida albicans to in vitro skin and intestinal test systems (co-cultivation, colony count); format: cell-based; details: for influence on growth rates of the pathogen: co-cultivation with in vitro skin and intestinal test systems in presence of antimycotic; for influence on the adhesion of the pathogen: human in vitro skin and intestinal test systems, submerse culture, antimycotic 0.1, 0.5, 1.0, 2.0 μg/μl, colony count vs samples without antimycotic
From the text: In an especially preferred embodiment, the present invention relates to the co-cultivation of the human-pathological microorganism candida albicans with the human in vitro skin test system or the human in vitro intestinal test system in order to investigate the first stage of the infection process, i.e. the adhesion of the pathogen to the skin or intestinal cells. The adhesion of the pathogen is investigated using the virulent candida strain Sc5314 and the avirulent candida strain Can34 that have already been studied in a mouse macrophage model (Longitudinal et al., Cell, 90 (1997), 939-949). The in vitro skin test system or the in vitro intestinal test system is in each case inoculated in submerse culture with about 10^3 pathogenic organisms and cultivated with shaking. At defined times, for example every 30 minutes (up to a maximum of 4 hours), aliquot amounts are removed and plated out into Petri dishes with appropriate nutrient media, for example YPD full medium (Difco). After an appropriate incubation time, the number of colonies in the Petri dishes is determined. The adhesion of the pathogens on the in vitro organ test systems can be determined based on the comparison between the determined colony count and the originally inoculated number of pathogens.
In a preferred embodiment, the method for investigating the adhesion of candida on the in vitro intestinal test system according to the invention and on the in vitro skin test system according to the invention is modified in such a way that the co-cultivation preparation contains an antimycotic, in particular amphothericin B or fluconazole.
In order to determine the adhesion of the pathogen on cells, 12 each inserts of the human in vitro skin test system held in submerse culture or 12 each inserts of the in vitro intestinal test system held in submerse culture were infected each with 10^3 pathogenic organisms of the virulent candida strain Sc5314 or of the avirulent candida strain Can34 (Longitudinal et al., Cell 90 (1997), […]). The inserts were then incubated with shaking at 37° C. for 30, 60, 90, 120, 150, or 180 min.
At the specified times, the supernatant was removed and plated out in Petri dishes with YPD nutrient medium. After an incubation period of 2 days, the colonies in the Petri dishes were counted. Based on the comparison between the determined colony count and originally inoculated number of pathogens, it was determined that approximately 95% of the virulent strain and 10% of the avirulent strain adhered to the in vitro skin model after 2 hours.
In order to determine the influence of antimycotics on the adhesion of candida albicans on skin and intestinal cells, 12 inserts of the in vitro skin test system held in submerse culture and 12 inserts of the in vitro intestinal test system each were infected with 10^3 pathogenic organisms of the virulent candida strain Sc5314 or the avirulent candida strain Can34. Amphotericin B was added to 5 inserts in a concentration of 0.1, 0.5, 1.0, and 2.0 μg/μl, and fluconazole was added to 5 inserts in a concentration of 0.1, 0.5, 1.0, and 2.0 μg/μl. The inserts were then incubated with shaking at 37° C. for up to 3 days.
After 16, 24, 72, 86, and 98 hours, aliquot amounts were removed and plated out in Petri dishes with YPD nutrient media. After an incubation period of 2 days, the colonies in the Petri dishes were counted.

[2] = test system: candida albicans (virulent strain Sc5314, avirulent strain Can34); experiment: Influence of antimycotics on penetration/invasion of candida albicans into in vitro skin and intestinal test systems (histology, PAS staining); format: cell-based; details: human in vitro skin and intestinal test systems, antimycotic 0.1, 0.5, 1.0, 2.0 μg/μl, histology after approximately 18 to 24 hours
From the text: In another particularly preferred embodiment, the present invention relates to the co-cultivation of the human-pathogenic microorganism candida albicans with the human in vitro skin test system prepared according to the invention or with the human in vitro intestinal test prepared according to the invention in order to investigate another stage of the infection process, i.e. the penetration/invasion of the pathogen into cells. For this, the organoid tissue test systems are co-cultivated using the airlift process with the previously described avirulent and virulent pathogen strains. The pathogen is preferably fixed with a cell count of 10^3/ml in 1% agar, and agar pieces with a diameter of 4 mm are placed onto the organoid tissue test systems for up to 98 hours. The penetration of the pathogen into the organoid structures was studied after 16 hours, 24 hours, 72 hours, 86 hours, and 98 hours using histological methods on thin sections, employing the PAS staining method (McManaus, Romeis, 17th ed., page 393). Using the histological sections, the invasion process of the virulent candida strain into the deeper layers of the connective-tissue-like matrix can be documented.
In another preferred embodiment, the method for investigating the penetration/invasion of candida with the in vitro intestinal test system and the in vitro skin test system was modified in such a way that the co-cultivation preparation contained amphothericin B or fluconazole.
In order to determine the penetration of the pathogen, 12 inserts of the in vitro skin system held in airlift culture and 12 inserts of the in vitro intestinal system held in airlift culture each were infected with 10^3 pathogenic organisms of the virulent candida strain Sc5314 or the avirulent candida strain Can34. The inserts then were incubated up to 3 days at 37° C.
The penetration of the pathogen into the organoid structures was investigated after about 18 to 24 hours using histological methods on thin sections, employing the PAS staining method both for the in vitro skin system as well as for the in vitro intestinal system. […]

| Structure (SMILES) | influence on growth rates of the pathogen [1] | influence on the adhesion of the pathogen [1] | influence on the adhesion of the pathogen ([1]; listed as amphothericin B) | invasion (penetration) of the virulent candida strain into the organoid structures [2] | invasion (penetration) of the virulent candida strain into the organoid structures ([2]; listed as amphothericin B) |
| --- | --- | --- | --- | --- | --- |
| C[C@@H]1[C@H](O)[C@@H](C)/C=C/C=C/C=C/C=C/C=C/C=C/C=C/[C@H](O[C@@H]2O[C@H](C)[C@@H](O)[C@H](N)[C@@H]2O)C[C@@H]2O[C@](O)(C[C@@H](O)C[C@@H](O)[C@H](O)CC[C@@H](O)C[C@@H](O)CC(=O)O[C@H]1C)C[C@H](O)[C@H]2C(=O)O [amphotericin B] | influenced its growth rates | adhesion of the virulent candida strain could only be prevented by adding amphotericin B and fluconazole and by an inhibition of growth | no influence on the adhesion of the pathogen | apparently prevents the invasion of the virulent candida strain by inhibiting its growth | could only be prevented with a complete inhibition of growth |
| OC(Cn1cncn1)(Cn1cncn1)c1ccc(F)cc1F [fluconazole] | influenced its growth rates | no influence on the adhesion of the pathogen; also recorded: adhesion of the virulent candida strain could only be prevented by adding amphotericin B and fluconazole and by an inhibition of growth | – | could only be prevented with a complete inhibition of growth; also recorded: apparently prevents the invasion of the virulent candida strain by inhibiting its growth | – |
